Source: patent US8697668B2, “Compositions and methods for preventing and treating cancer via modulating UBE1L, ISG215 and/or UBP43” (Trustees of Dartmouth College, priority 2002, dated 2014)
Like-named read-outs stand apart in the source and are kept apart here. Where a SMILES comes first, the peptide text is derived from it. [ ]: non-standard residue; d: D form. Nle = CCCC[C@H](N)C(=O)O

Experiments:
[1] = test system: ISG15-conjugated cyclin D1; experiment: Immunoprecipitation/immunoblot of ISG15-cyclin D1 conjugates in BEAS-2B cells; type: cell-based, human; settings: BEAS-2B cells co-transfected with UBE1L, ISG15 and cyclin D1
Excerpt: Cells were lysed with ice-cold radioimmunoprecipitation (RIPA) lysis buffer, using established techniques (Pitha-Rowe, et al. (2004) supra; Pitha-Rowe, et al. (2004) supra; Feng, et al. (2007) supra; Ma, et al. (2005) Cancer Res. 65:6476-83). Lysates were size-fractionated by sodium dodecyl sulphate-polyacrylamide gel electrophoresis (SDS-PAGE) assays before transfer to nitrocellulose membranes (Schleicher & Schuell Bioscience, Inc., Keene, N.H.). The polyclonal antibody recognizing the UBE1L amino terminus of UBE1L was used for immunoblot and immunohistochemical assays. Other primary antibodies for immunoblot assays included a rabbit polyclonal antibody recognizing cyclin D1 (M-20) (Santa Cruz Biotechnology, Santa Cruz, Calif.), a murine monoclonal antibody against hemagglutinin (HA)-tagged proteins (Babco, Richmond, Calif.) and a goat polyclonal antibody recognizing actin (Santa Cruz Biotechnology). Anti-mouse and anti-rabbit antisera were purchased (Amersham Biosciences, Piscataway, N.J.) as was anti-goat antisera (Santa Cruz Biotechnology) and these were used as respective secondary antibodies. Membranes used for immunoblot analyses were treated with the MEMCODE reversible stain (Pierce, Rockford, Ill.). […] Quantification of signal intensities was scored as before (Shah, et al. (2008) supra; Feng, et al. (2007) supra; Ma, et al. (2005) supra). […]

UBE1L [2] = experiment: UBE1L immunoblot in BEAS-2B cells; type: cell-based, human; settings: 1 μM, 10 days treatment versus vehicle
Procedure: (§1) The H358 lung cancer cell line was cultured in RPMI-1640 medium (INVITROGEN Corporation, Carlsbad, Calif.) containing L-glutamine, 10% fetal bovine serum and 1% antibiotic-antimycotic solution (CELLGRO, Herndon, Va.) (Petty, et al. (2004) Clin. Cancer Res. 10:7547-54). Cells were incubated at 37° C. in a humidified incubator with 5% CO2. Bexarotene treatments of HBE and lung cancer cells were accomplished according to known methods (Dragnev, et al. (2007) Clin. Cancer Res. 13:1794-800; Dragnev, et al. (2005) J. Clin. Oncol. 23:8757-64).
(§2) Cells were lysed with ice-cold radioimmunoprecipitation (RIPA) lysis buffer, using established techniques (Pitha-Rowe, et al. (2004) supra; Pitha-Rowe, et al. (2004) supra; Feng, et al. (2007) supra; Ma, et al. (2005) Cancer Res. 65:6476-83). Lysates were size-fractionated by sodium dodecyl sulphate-polyacrylamide gel electrophoresis (SDS-PAGE) assays before transfer to nitrocellulose membranes (Schleicher & Schuell Bioscience, Inc., Keene, N.H.). The polyclonal antibody recognizing the UBE1L amino terminus of UBE1L was used for immunoblot and immunohistochemical assays. […] Quantification of signal intensities was scored as before (Shah, et al. (2008) supra; Feng, et al. (2007) supra; Ma, et al. (2005) supra). […]

ISG15 [3] = experiment: ISG15 immunohistochemical expression, post- versus pretreatment lung cancer biopsies; type: in vivo; settings: post- and pre-bexarotene treatment biopsies of the lung cancer cases
Excerpt: (§3) Paraffin-embedded and formalin-fixed tissues were obtained from an Institutional Review Board-approved proof of principle bexarotene lung cancer trial (Dragnev, et al. (2007) supra). Tissues were examined for cyclin D1 (Petty, et al. (2004) supra; Dragnev, et al. (2007) supra; Dragnev, et al. (2005) supra), UBE1L (Pitha-Rowe, et al. (2004) supra), ISG15 (Andersen, et al. (2006) Br. J. Cancer 94:1465-71), and Ki-(Petty, et al. (2004) supra; Dragnev, et al. (2007) supra; Dragnev, et al. (2005) supra) immunohistochemical expression profiles.

cyclin D1 [4] = experiment: Cyclin D1 immunohistochemical expression, post- versus pretreatment lung cancer biopsies; type: in vivo
Excerpt: as §3

cyclin D1 [5] = experiment: Cyclin D1 immunoblot in BEAS-2B cells; type: cell-based, human
Procedure: as §1, §2

[6] = test system: BEAS-2B human bronchial epithelial cells; experiment: Clonal growth assay; type: cell-based; settings: bexarotene treatment, FIG. 2
Procedure: Human bronchial epithelial cells (BEAS-2B) were cultured in serum-free LHC-9 medium (Biofluids, Rockville, Md.) in accordance with established techniques (Langenfeld, et al. (1997) Proc. Natl. Acad. Sci. USA 94:12070-12074; Boyle, et al. (1999) J. Natl. Cancer Inst. 91:373-379).
Five μg of MSCVIRES-UBE1L-GFP and an empty vector were independently transfected into the Phoenix Amphotropic packaging cell line (ATCC, Manassas, Va.) using EUGENE 6 (Roche, Indianapolis, Ind.), and the vendor's recommended procedures. Forty-eight hours later, viral supernatants were […] respective transduced BEAS-2B HBE or H358 lung cancer cells with 4 μg/ml POLYBRENE (Sigma). Forty-eight hours later, cells positive for GFP expression were harvested using a FACSTAR Plus (Becton Dickinson, San Jose, Calif.) high speed sorting cytometer. This was repeated one week later to enrich for studied transductants.
Clonal growth assays (Langenfeld, et al. (1996) Oncogene 13:1983-90) were performed using 5×10^2 BEAS-2B and 1×10^3 H358 cells. These cells were independently engineered to over-express UBE1L or a control vector. […] Two weeks later, visible colonies were fixed and stained with DIFF QUIK solution (Baxtor, McGaw Park, Ill.) and quantified with the Col Count instrument (Oxford Optronix, Oxford, UK).

cyclin D1 [7] = experiment: Cyclin D1 immunoblot in H358 cells; type: cell-based
Procedure: as §1, §2

Ki-67 = Ki-67 immunostaining (proliferation), post- versus pretreatment lung cancer biopsies; type: in vivo
Excerpt: as §3

UBE1L [8] = experiment: UBE1L immunohistochemical expression, post- versus pretreatment lung cancer biopsies; type: in vivo
Excerpt: as §3

[9] = cited from earlier work
E1 = E1 mRNA expression in NB4-S1 cells; type: cell-based; settings: RA 1 μM
UBE1L [10] = experiment: UBE1L mRNA expression, reverse transcription-PCR in NB4 APL cells; type: cell-based; settings: 10 μM RA
Procedure: (§4) The NB4 APL cell line expresses PML/RARα (Lanotte, et al. (1991) Blood 77:1080-1086). NB4-S1 and NB4-R1 are RA-sensitive and RA-resistant clones of NB4 cells, respectively (Nason-Burchanel, et al. (1997) Differentiation 61:321-331). These cells were cultured in RPMI-1640 medium supplemented with 10% FBS (see, Nason-Burchenal et al. (1997) supra).
UBE1L mRNA expression was assessed by a reverse transcription-PCR assay in accordance with established methods (Kakizuka et al. (1991) Cell 68:663-674). The forward primer was 5′-AGGTGGCCAAGAACTTGGTT-3′ (SEQ ID NO:8), and the reverse primer was 5′-CACCACCTGGAAGTCCAACA-3′ (SEQ ID NO:9). The PCR product was visualized by probing with a ^32P-labeled primer. Results were confirmed independently by Northern analysis using a 1.0-kb EcoRI/NcoI-radiolabeled UBE1L probe in accordance with standard techniques (Langenfeld et al. (1997) Proc. Natl. Acad. Sci. USA 94:12070-12074). This probe had limited homology to E1.

NB4-S1 APL cells = experiment: NBT reduction maturation (differentiation) assay; type: cell-based; settings: 5 days treatment with RA (1 μM)
Procedure: as §4
NB4 cell differentiation was scored by using the nitroblue tetrazolium (NBT) reduction assay (Nason-Burchenal, et al. (1997) supra; Nason-Burchenal, et al. (1998a) Blood 92:1758-1767; Nason-Burchanel, et al. (1998b) Oncogene 17:1759-1768) Transductants were identified by green fluorescent protein (GFP) coexpression. Apoptosis was scored by using established techniques and Hoechst staining of transductants that co-expressed GFP (Nason-Burchenal, et al. (1998a) supra; Nason-Burchenal, et al. (1998b) supra; Stadheim, et al. (2001) Cancer Res. 61:1533-1540). Digital images were collected using an OLYMPUS 1×70 inverted microscope, a cooled charge-coupled device camera, and a MIRACAL Pro Single Cell Imaging System (OLYMPUS LSR Research, Melville, N.Y.).

UBE1L [11] = experiment: UBE1L immunoblot expression in NB4 cells; type: cell-based; settings: NB4-S1 APL cells, RA 1 μM
Excerpt: Two rabbit polyclonal antibodies against UBE1L were independently derived (Covance Research Products, Denver, Pa.) using one peptide within the amino terminus (Asp-Cys-Asp-Pro-Arg-Ser-Ile-His-Val-Arg-Glu-Asp-Gly-Ser-Leu-Glu-Ile-Gly-Asp (SEQ ID NO:10)) and a second peptide within the carboxyl terminus (Pro-Gly-Ser-Gln-Asp-Trp-Thr-Ala-Leu-Arg-Glu-Leu-Leu-Lys-Leu-Leu (SEQ ID NO:11)). Specificities of these antisera were confirmed by immunoblot analyses of UBE1L-transfected CHO cells.
Immunoblot analyses were performed using established techniques (Langenfeld, et al. (1997) Proc. Natl. Acad. Sci. USA 94:12070-12074; Spinella, et al. (1999) J. Biol. Chem. 274:22013-22018). Anti-RARα antibody was provided by and can be purchased from P. Chambon (Institut National de la Sant et de la Recherche Mdicale, Strasbourg, France) to detect PML/RARα (Nason-Burchenal, et al. (1998) Blood 92:1758-1767; Nason-Burchenal, et al. (1998) Oncogene 17:1759-1768). An anti-HA mAb was purchased (Babco, Richmond, Calif.) as was an anti-actin polyclonal antibody, C-11 (Santa Cruz Biotechnology, Santa Cruz, Calif.).

ISG15 [12] = experiment: ISG15 expression and conjugation in NB4 cells; type: cell-based
[13] = case with low bexarotene levels
[14] = lung cancer case with high levels
[15] = representative lung cancer case with low levels

For CCCC[C@@H](C=O)NC(=O)[C@H](CC(C)C)NC(=O)[C@H](CC(C)C)NC(C)=O [ALLN] (Ac-Leu-Leu-[Nle]-aldehyde), the “ISG15ylated cyclin D1 species” value [1] was “stabilized”.

For C=C(c1ccc(C(=O)O)cc1)c1cc2c(cc1C)C(C)(C)CCC2(C)C [Bexarotene], the UBE1L expression (UBE1L [2]) was “prominently increased”, the ISG15 immunohistochemical expression (ISG15 [3]) was “similar” and the “cyclin D1 expression in post-versus pre-treatment biopsies” value (cyclin D1 [4]; case with high bexarotene plasma and intratumoral levels) was “declined”. The “cyclin D1 immunohistochemical expression profile” value (cyclin D1 [4]; [13]) was “not appreciably altered”, the “cyclin D1 protein” value (cyclin D1 [5]) was “repressed” and the BEAS-2B clonal growth [6] was “dose-dependent decline”. For the same compound, the BEAS-2B clonal growth ([6]; listed as bexarotene) was “Dose-dependent inhibition”, the “cyclin D1 protein” value (cyclin D1 [7]) was “repressed” and the “proliferation, Ki-67 immunostaining” value (Ki-67; case with high bexarotene levels, post-versus pretreatment biopsies) was “decrease”. The “Repression of Ki-67 immunostaining” value (Ki-67; [13]) was “not observed”, the “odds ratio, association between intratumoral bexarotene concentration and UBE1L increase” value (UBE1L [8]; 95% asymptotic CI 0.1, 354.9) was 6 and the UBE1L immunohistochemical expression (UBE1L [8]; case with high bexarotene levels) was “increase”. The “UBE1L immunohistochemical expression profile” value (UBE1L [8]; [13]) was “not appreciably altered”, the “response rate for UBE1L” value (UBE1L [8]; five cases examined, 95% CI 1, 72) was 20% and the bexarotene intratumoral level [9, 14] was 0.31 µM. The bexarotene plasma level [9, 14] was 1.49 µM, the bexarotene intratumoral level [9, 15] was 0.09 µM and the bexarotene plasma level [9, 15] was 0.13 µM.

For CC1=C(/C=C/C(C)=C/C=C/C(C)=C/C(=O)O)C(C)(C)CCC1 [RA, All-trans-retinoic acid], the “E1 mRNA” value (E1) was “not induced”, the UBE1L expression (UBE1L [10]; RA-resistant NB4-R1 cell line, same time period) was “not induced” and the “UBE1L mRNA induction” value (UBE1L [10]; RA-sensitive NB4-S1 cells, reverse transcription-PCR) was “induction occurred by three hours”. The “NBT, %” value (NB4-S1 APL cells) was 92%, the UBE1L protein expression (UBE1L [11]) was “induced” and the ISG15 expression (ISG15 [12]; RA-sensitive NB4 cells) was “augments”. The “intracellular ISG15 conjugation” value (ISG15 [12]; retinoid-sensitive NB4 cells) was “increases”.
